Assay results reported in PMC6022709 (BMC Research Notes, 2018).
Converted amounts (≈) assume the structure as drawn. Where two headings read alike, the source gives them in different places.

Tested on: M. tuberculosis resistant isolates
Type: cell-based, Mycobacterium tuberculosis
Settings: solid medium 7H10 with 10% v/v OADC, 3–4 weeks

SMILES | MIC99 (strain LP-0458690-RM1) [µM] | MIC99 (strain LP-0458690-RM2) [µM] | MIC99 (strain LP-0458690-RM3) [µM] | MIC99 (strain LP-0458690-RM4) [µM] | MIC99 (strain LP-0458690-RM5) [µM] | MIC99 (strain LP-0458690-RM6) [µM] | MIC99 (strain LP-0458686-RM1) [µM] | MIC99 (strain LP-0458686-RM2) [µM] | MIC99 (strain LP-0458686-RM3) [µM]
CC(C)CC1C(=O)N2NCCCC2C(=O)N2NCCCC2C(=O)N(C)C(Cc2ccccc2)C(=O)N2CCCC2C(=O)NC(Cc2ccccc2)C(=O)N1O (stereo not drawn) [Compound 1, cyclo[N-(Me)Phe-Pro-Phe-N-(OH)Leu-Piz-Piz]] | 13 (≈ 9.87 µg/mL) | 25 (≈ 19 µg/mL) | 25 (≈ 19 µg/mL) | 25 (≈ 19 µg/mL) | 25 (≈ 19 µg/mL) | 25 (≈ 19 µg/mL) | – | – | –
CC(C)CC1C(=O)N2NCCCC2C(=O)N2NCCCC2C(=O)N(C)C(Cc2ccccc2)C(=O)N2CCCC2C(=O)NC(C(C)C)C(=O)N1O (stereo not drawn) [Compound 3] | – | – | – | – | – | – | 3.1 (≈ 2.2 µg/mL) | 3.1 (≈ 2.2 µg/mL) | 3.1 (≈ 2.2 µg/mL)
